As a reminder, the IC50 is the concentration needed to halve the response being measured. Low readings indicate greater potency in that assay, high ones weaker potency in that assay.

IC50 data for three compounds are collected here from BindingDB's records for doi:10.3109/14756366.2011.649269 (Università di Firenze, 2013).

Each structure is given as a SMILES string.

Experiment in all cases: Carbonic Anhydrase I, II, IV and XII Assay
Common to all, as to details: pH 7.5; 25 °C

One experiment has as its target Carbonic anhydrase 4 (Homo sapiens, UniProt P22748). The method, then: (§1) An Applied Photophysics stopped-flow instrument has been used for assaying the CA catalysed CO2 hydration activity [Khalifah et al., J. Biol. Chem., 246:2561-2573]. Phenol red (at a concentration of 0.2 mM) has been used as indicator, working at the absorbance maximum of 557 nm, with 10-20 mM Hepes (pH 7.5) as buffer, and 20 mM Na2SO4 (for maintaining constant the ionic strength), following the initial rates of the CA-catalyzed CO2 hydration reaction for a period of 10-100 s. The CO2 concentrations ranged from 1.7 to 17 mM for the determination of the kinetic parameters and inhibition constants. For each inhibitor at least six traces of the initial 5-10% of the reaction have been used for determining the initial velocity. The uncatalyzed rates were determined in the same manner and subtracted from the total observed rates. Stock solutions of inhibitor (10 mM) were prepared in distilled-deionised water and dilutions up to 0.01 nM were done thereafter with distilled-deionised water. Inhibitor and enzyme solutions were preincubated together for 15 min at room temperature prior to assay, in order to allow for the formation of the E-I complex.

The target in a further experiment is Carbonic anhydrase 12 (Homo sapiens, UniProt O43570). The method, then:
as §1

In the next experiment the target is Carbonic anhydrase 1 (Homo sapiens, UniProt P00915). The method, then:
as §1

Another experiment addresses Carbonic anhydrase 2 (Homo sapiens, UniProt P00918). How it is done: as §1

Carbonic anhydrase 4, sequence (P22748 whole entry): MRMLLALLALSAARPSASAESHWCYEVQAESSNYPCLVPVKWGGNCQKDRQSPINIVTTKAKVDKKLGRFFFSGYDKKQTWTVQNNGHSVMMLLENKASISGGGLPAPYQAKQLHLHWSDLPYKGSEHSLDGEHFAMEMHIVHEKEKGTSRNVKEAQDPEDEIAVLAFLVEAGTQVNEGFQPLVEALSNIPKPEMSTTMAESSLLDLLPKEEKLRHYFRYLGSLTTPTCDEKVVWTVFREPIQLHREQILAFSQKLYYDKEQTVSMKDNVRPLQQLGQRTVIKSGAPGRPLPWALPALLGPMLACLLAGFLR
Carbonic anhydrase 1, sequence (P00915 whole entry): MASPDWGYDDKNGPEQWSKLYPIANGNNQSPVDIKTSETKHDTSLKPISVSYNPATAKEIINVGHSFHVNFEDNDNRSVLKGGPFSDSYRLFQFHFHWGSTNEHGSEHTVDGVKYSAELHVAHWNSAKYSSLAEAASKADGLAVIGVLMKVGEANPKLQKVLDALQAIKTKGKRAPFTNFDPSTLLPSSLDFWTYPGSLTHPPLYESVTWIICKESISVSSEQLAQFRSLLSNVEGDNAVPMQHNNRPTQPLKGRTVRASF
Carbonic anhydrase 12, sequence (O43570 whole entry): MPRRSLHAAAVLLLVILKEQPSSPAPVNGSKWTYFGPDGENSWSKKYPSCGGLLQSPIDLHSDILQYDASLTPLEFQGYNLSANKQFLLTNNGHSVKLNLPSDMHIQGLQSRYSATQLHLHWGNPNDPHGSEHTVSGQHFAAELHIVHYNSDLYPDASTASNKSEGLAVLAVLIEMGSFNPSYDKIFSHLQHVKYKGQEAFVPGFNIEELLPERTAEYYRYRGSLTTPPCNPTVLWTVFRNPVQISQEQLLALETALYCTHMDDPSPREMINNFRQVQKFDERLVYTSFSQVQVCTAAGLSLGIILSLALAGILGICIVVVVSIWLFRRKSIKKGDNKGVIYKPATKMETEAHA

Consider `NS(=O)(=O)c1ccc(C(=O)NCCCN2CCOCC2)cc1` [4-Sulfamoyl-N-(3-morpholinopropyl)benzamide (I-1)], for which the IC50 on Carbonic anhydrase 4 was 611 nM; against Carbonic anhydrase 12 it was 645 nM; on Carbonic anhydrase 1, 231 nM; against Carbonic anhydrase 2 it was 216 nM.

Consider `NS(=O)(=O)c1ccc(S(=O)(=O)NCCCN2CCOCC2)cc1` [N-(3-morpholinopropyl)benzene-1,4-disulfonamide (I-2)], for which the IC50 on Carbonic anhydrase 4 was 499 nM; on Carbonic anhydrase 12, 517 nM; against Carbonic anhydrase 1, 57.7 nM; against Carbonic anhydrase 2 it was 65.8 nM.

For `CCN(CC)CCOc1ccc(CNS(=O)(=O)c2ccc(S(N)(=O)=O)cc2)cc1` [N-(4-diethylaminoethoxybenzyl)benzene-1,4-bis-sulfonamide (I-3)], the IC50 was found to be 508 nM against Carbonic anhydrase 4, 737 nM on Carbonic anhydrase 12, 59.8 nM on Carbonic anhydrase 1 and 81.1 nM on Carbonic anhydrase 2.
